Laboratory results reported in ChEMBL document CHEMBL5154776, “Discovery of Potent and Orally Bioavailable Platelet-Derived Growth Factor Receptor (PDGFR) Inhibitors for the Treatment of Osteosarcoma” (J Med Chem, 2022).

What was measured:
U2OS = experiment: Antiproliferative activity against human U2OS cells assessed as reduction in cell viability incubated for 48 hrs by MTT assay
MG-63 = experiment: Antiproliferative activity against human MG-63 cells assessed as reduction in cell viability incubated for 48 hrs by MTT assay; settings: MG-63, 48 h
HOS-TE85 = experiment: Antiproliferative activity against human MNNG/HOS cells assessed as reduction in cell viability incubated for 48 hrs by MTT assay; settings: HOS-TE85, 48 h
SAOS-2 = experiment: Antiproliferative activity against human SAOS-2 cells assessed as reduction in cell viability incubated for 48 hrs by MTT assay; settings: SAOS-2, 48 h
[1] = target: T1, Platelet-derived growth factor receptor beta (Homo sapiens, UniProt P09619); experiment: Inhibition of PDGFRbeta (unknown origin) by caliper mobility shift assay
T1 sequence (P09619 whole entry): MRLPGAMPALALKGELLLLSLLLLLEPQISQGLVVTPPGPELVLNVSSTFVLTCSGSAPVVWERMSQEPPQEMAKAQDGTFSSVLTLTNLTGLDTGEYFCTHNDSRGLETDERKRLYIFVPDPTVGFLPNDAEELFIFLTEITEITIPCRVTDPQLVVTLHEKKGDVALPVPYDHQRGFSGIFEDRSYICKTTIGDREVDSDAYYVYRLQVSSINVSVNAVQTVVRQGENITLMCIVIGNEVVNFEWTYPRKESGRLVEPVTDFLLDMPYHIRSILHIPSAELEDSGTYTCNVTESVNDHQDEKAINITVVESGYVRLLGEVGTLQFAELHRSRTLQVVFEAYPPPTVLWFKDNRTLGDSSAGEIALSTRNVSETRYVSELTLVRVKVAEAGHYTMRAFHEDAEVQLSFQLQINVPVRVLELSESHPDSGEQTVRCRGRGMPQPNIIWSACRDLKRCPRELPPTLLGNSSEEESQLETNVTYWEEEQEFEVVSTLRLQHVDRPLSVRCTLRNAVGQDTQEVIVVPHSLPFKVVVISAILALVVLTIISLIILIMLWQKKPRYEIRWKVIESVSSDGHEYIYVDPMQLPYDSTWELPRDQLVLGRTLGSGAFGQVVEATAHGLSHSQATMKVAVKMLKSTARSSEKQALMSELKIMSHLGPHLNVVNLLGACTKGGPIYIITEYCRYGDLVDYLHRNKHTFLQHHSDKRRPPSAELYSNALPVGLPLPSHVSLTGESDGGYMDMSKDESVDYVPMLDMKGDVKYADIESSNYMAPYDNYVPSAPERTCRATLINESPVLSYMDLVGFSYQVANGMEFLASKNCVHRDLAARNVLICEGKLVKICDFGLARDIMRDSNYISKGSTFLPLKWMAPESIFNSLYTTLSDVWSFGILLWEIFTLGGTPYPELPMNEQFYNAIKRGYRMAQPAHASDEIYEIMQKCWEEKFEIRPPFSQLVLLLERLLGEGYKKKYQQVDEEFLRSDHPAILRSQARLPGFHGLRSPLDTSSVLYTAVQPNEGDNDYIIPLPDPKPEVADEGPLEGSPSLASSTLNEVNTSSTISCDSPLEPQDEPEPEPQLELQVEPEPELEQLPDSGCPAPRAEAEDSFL

[2] = target: T1, Platelet-derived growth factor receptor beta; experiment: Inhibition of PDGFRbeta (unknown origin) at 100 nM by caliper mobility shift assay relative to control
CYP2C19 = experiment: Inhibition of CYP2C19 in rat liver microsomes at 100 uM using voriconazole as substrate preincubated for 5 min followed by NADPH addition and measured after 40 mins by UHPLC-MS/MS analysis; type: ADME, Microsome; settings: probe voriconazole, time 45 min
[3] = target: Platelet-derived growth factor receptor alpha (Homo sapiens, UniProt P16234); experiment: Inhibition of PDGFRalpha (unknown origin) by caliper mobility shift assay
Chain of Platelet-derived growth factor receptor alpha (P16234 whole entry): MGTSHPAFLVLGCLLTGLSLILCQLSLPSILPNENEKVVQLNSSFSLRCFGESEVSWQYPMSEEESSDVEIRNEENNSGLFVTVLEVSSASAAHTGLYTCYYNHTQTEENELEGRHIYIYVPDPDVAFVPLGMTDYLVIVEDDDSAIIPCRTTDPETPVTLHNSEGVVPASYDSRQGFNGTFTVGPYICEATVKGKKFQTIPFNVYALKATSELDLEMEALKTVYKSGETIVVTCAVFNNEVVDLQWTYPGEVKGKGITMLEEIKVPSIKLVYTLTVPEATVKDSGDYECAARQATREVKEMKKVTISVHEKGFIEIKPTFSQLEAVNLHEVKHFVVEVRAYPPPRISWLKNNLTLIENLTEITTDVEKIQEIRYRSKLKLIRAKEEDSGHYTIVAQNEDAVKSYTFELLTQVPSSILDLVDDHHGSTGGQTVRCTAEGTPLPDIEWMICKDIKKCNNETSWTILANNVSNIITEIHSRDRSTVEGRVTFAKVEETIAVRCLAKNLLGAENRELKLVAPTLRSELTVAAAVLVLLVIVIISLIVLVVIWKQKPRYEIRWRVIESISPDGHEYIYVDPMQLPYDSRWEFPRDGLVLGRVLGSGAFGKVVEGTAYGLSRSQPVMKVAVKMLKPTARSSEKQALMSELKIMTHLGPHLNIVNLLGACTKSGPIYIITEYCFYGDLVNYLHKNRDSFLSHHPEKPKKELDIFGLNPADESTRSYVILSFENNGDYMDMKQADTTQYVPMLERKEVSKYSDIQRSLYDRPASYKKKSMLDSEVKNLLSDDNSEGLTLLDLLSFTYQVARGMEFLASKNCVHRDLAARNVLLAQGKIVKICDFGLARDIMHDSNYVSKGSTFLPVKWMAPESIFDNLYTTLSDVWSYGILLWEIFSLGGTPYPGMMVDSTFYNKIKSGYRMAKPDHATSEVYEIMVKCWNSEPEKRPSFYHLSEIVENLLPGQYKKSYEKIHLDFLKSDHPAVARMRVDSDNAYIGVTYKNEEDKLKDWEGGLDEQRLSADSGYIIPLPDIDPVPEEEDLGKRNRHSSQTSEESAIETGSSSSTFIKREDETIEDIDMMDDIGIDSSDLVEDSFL

CYP2C9 = experiment: Inhibition of CYP2C9 in rat liver microsomes at 100 uM using diclofenac as substrate preincubated for 5 min followed by NADPH addition and measured after 40 mins by UHPLC-MS/MS analysis; type: ADME, Microsome; settings: probe diclofenac, time 45 min
[4] = Toxicity in C57/BL6 mouse assessed as change in heart weight at 40 to 80 mg/kg/day, po dosed for 10 days; type: organism-based; settings: in vivo, 240 h, dose 40-80 mg/kg/day, time 10 day
[5] = Cmax in Sprague-Dawley rat at 4 mg/kg, ip measured at 0.08 to 8 hrs by UHPLC-MS/MS analysis; type: ADME, organism-based; set-up: time lower 0.08 hrs, dose 4 mg/kg, time upper 8 hrs, route ip; settings: in vivo
[6] = Cmax in Sprague-Dawley rat at 20 mg/kg, po measured at 0.033 to 48 hrs by UHPLC-MS/MS analysis; type: ADME, organism-based; set-up: dose 20 mg/kg, time upper 48 hrs, time lower 0.033 hrs, route po; settings: in vivo
[7] = Half life in Sprague-Dawley rat at 4 mg/kg, ip measured at 0.08 to 8 hrs by UHPLC-MS/MS analysis; type: ADME, organism-based; settings: in vivo, time 0.08-8 hrs
[8] = Half life in Sprague-Dawley rat at 20 mg/kg, po measured at 0.033 to 48 hrs by UHPLC-MS/MS analysis; type: ADME, organism-based; settings: in vivo, time 0.033-48 hrs
[9] = AUC(0 to infinity) in Sprague-Dawley rat at 4 mg/kg, ip measured at 0.08 to 8 hrs by UHPLC-MS/MS analysis; type: ADME, organism-based; set-up: dose 4 mg/kg, time 0.08-8 hrs, route ip; settings: in vivo
[10] = AUC(0 to infinity) in Sprague-Dawley rat at 20 mg/kg, po measured at 0.033 to 48 hrs by UHPLC-MS/MS analysis; type: ADME, organism-based; set-up: dose 20 mg/kg, time 0.033-48 hrs, route po; settings: in vivo
[11] = Oral bioavailability in Sprague-Dawley rat at 20 mg/kg measured at 0.033 to 48 hrs by UHPLC-MS/MS analysis; type: ADME, organism-based; settings: in vivo, time 0.033-48 hrs
[12] = Toxicity in C57/BL6 mouse assessed as tolerability at 40 to 80 mg/kg/day, po dosed for 10 days; type: organism-based; settings: in vivo, 240 h, dose 40-80 mg/kg/day, time 10 day
[13] = Toxicity in C57/BL6 mouse assessed as change in body weight at 40 to 80 mg/kg/day, po dosed for 10 days; type: organism-based; settings: in vivo, 240 h, dose 40-80 mg/kg/day, time 10 day
[14] = Toxicity in C57/BL6 mouse assessed as change in lung weight at 40 to 80 mg/kg/day, po dosed for 10 days; type: organism-based; settings: in vivo, 240 h, dose 40-80 mg/kg/day, time 10 day
[15] = Toxicity in C57/BL6 mouse assessed as change in liver weight at 40 to 80 mg/kg/day, po dosed for 10 days; type: organism-based; settings: in vivo, 240 h, dose 40-80 mg/kg/day, time 10 day
[16] = Toxicity in C57/BL6 mouse assessed as change in spleen weight at 40 to 80 mg/kg/day, po dosed for 10 days; type: organism-based; settings: in vivo, 240 h, dose 40-80 mg/kg/day, time 10 day
[17] = Toxicity in C57/BL6 mouse assessed as change in kidney weight at 40 to 80 mg/kg/day, po dosed for 10 days; type: organism-based; settings: in vivo, 240 h, dose 40-80 mg/kg/day, time 10 day
[18] = Hepatotoxicity in C57/BL6 mouse assessed as effect on alanine aminotransferase level at 40 to 80 mg/kg/day, po dosed for 10 days by liver function test; type: toxicity, organism-based; settings: in vivo, 240 h, dose 40-80 mg/kg/day, time 10 day
[19] = Hepatotoxicity in C57/BL6 mouse assessed as effect on aspartate aminotransferase level at 40 to 80 mg/kg/day, po dosed for 10 days by liver function test; type: toxicity, organism-based; settings: in vivo, 240 h, dose 40-80 mg/kg/day, time 10 day
[20] = Nephrotoxicity in C57/BL6 mouse assessed as effect on creatinine level at 40 to 80 mg/kg/day, po dosed for 10 days by kidney function test; type: toxicity, organism-based; settings: in vivo, 240 h, dose 40-80 mg/kg/day, time 10 day
[21] = Toxicity in C57/BL6 mouse assessed as histopathological change in kidney at 40 to 80 mg/kg/day, po dosed for 10 days by Hematoxylin and eosin based staining analysis; type: organism-based; settings: in vivo, 240 h, dose 40-80 mg/kg/day, time 10 day
[22] = Toxicity in C57/BL6 mouse assessed as histopathological change in liver at 40 to 80 mg/kg/day, po dosed for 10 days by Hematoxylin and eosin based staining analysis; type: organism-based; settings: in vivo, 240 h, dose 40-80 mg/kg/day, time 10 day
[23] = Toxicity in BALB/c nude mouse xenograted with human MNNG/HOS cells assessed as effect on body weight at 15 to 30 mg/kg/day, po dosed for 14 days; type: organism-based, HOS-TE85; settings: in vivo, 336 h, dose 15-30 mg/kg/day, time 14 day
[24] = Toxicity in BALB/c nude mouse xenograted with human MNNG/HOS cells assessed as effect on heart weight at 15 to 30 mg/kg/day, po dosed for 14 days; type: organism-based, HOS-TE85; settings: in vivo, 336 h, dose 15-30 mg/kg/day, time 14 day
[25] = Toxicity in BALB/c nude mouse xenograted with human MNNG/HOS cells assessed as effect on lung weight at 15 to 30 mg/kg/day, po dosed for 14 days; type: organism-based, HOS-TE85; settings: in vivo, 336 h, dose 15-30 mg/kg/day, time 14 day
[26] = Toxicity in BALB/c nude mouse xenograted with human MNNG/HOS cells assessed as effect on liver weight at 15 to 30 mg/kg/day, po dosed for 14 days; type: organism-based, HOS-TE85; settings: in vivo, 336 h, dose 15-30 mg/kg/day, time 14 day
[27] = Toxicity in BALB/c nude mouse xenograted with human MNNG/HOS cells assessed as effect on spleen weight at 15 to 30 mg/kg/day, po dosed for 14 days; type: organism-based, HOS-TE85; settings: in vivo, 336 h, dose 15-30 mg/kg/day, time 14 day
[28] = Toxicity in BALB/c nude mouse xenograted with human MNNG/HOS cells assessed as effect on kidney weight at 15 to 30 mg/kg/day, po dosed for 14 days; type: organism-based, HOS-TE85; settings: in vivo, 336 h, dose 15-30 mg/kg/day, time 14 day
[29] = Toxicity in BALB/c nude mouse xenograted with human MNNG/HOS cells assessed as morphological change in liver at 15 to 30 mg/kg/day, po for 14 days by hematoxylin and eosin staining method; type: organism-based, HOS-TE85; settings: in vivo, 336 h, dose 15-30 mg/kg/day, time 14 day
[30] = Toxicity in BALB/c nude mouse xenograted with human MNNG/HOS cells assessed as morphological change in kidney at 15 to 30 mg/kg/day, po for 14 days by hematoxylin and eosin staining method; type: organism-based, HOS-TE85; settings: in vivo, 336 h, dose 15-30 mg/kg/day, time 14 day
[31] = Toxicity in BALB/c nude mouse xenograted with human MNNG/HOS cells assessed as kidney lesion at 30 mg/kg/day, po for 14 days by hematoxylin and eosin staining method; type: organism-based, HOS-TE85; settings: in vivo, 336 h, time 14 day

CCN1CCN(c2ccc(Nc3ncc(C)c(Nc4ccc5cn[nH]c5c4)n3)cc2)CC1
IC50 (U2OS): 550 nM
IC50 (MG-63): 960 nM
IC50 (HOS-TE85): 1400 nM
IC50 (SAOS-2): 950 nM
IC50 [1]: 7.6 nM

Cc1cnc(Nc2ccc(N3CCN(C)CC3)cc2)nc1Nc1ccc2c(C)n[nH]c2c1
inhibition [2]: 98%

COc1cc(Nc2ncc(C)c(Nc3ccc4cn[nH]c4c3)n2)ccc1N1CCN(C)CC1
IC50 (U2OS): 760 nM
IC50 (MG-63): 840 nM
IC50 (HOS-TE85): 1360 nM
IC50 (SAOS-2): 720 nM
IC50 [1]: 4.6 nM

Cc1cnc(Nc2ccc(N3CCNCC3)cc2)nc1Nc1ccc2cn[nH]c2c1
IC50 [1]: 110 nM

Cc1cnc(Nc2ccc(N3CCC(F)(F)CC3)cc2)nc1Nc1ccc2cn[nH]c2c1
IC50 [1]: 90.9 nM

Cc1cc(Nc2ccc3cn[nH]c3c2)nc(Nc2ccc(N3CCN(C)CC3)cc2)n1
inhibition [2]: 7.2%

CCN1CCN(c2ccc(Nc3ncc(C)c(Nc4ccc5cn[nH]c5c4)n3)cc2OC)CC1
IC50 (U2OS): 420 nM
inhibition at 40 min, 100 µM (CYP2C19): 45.6%
IC50 (MG-63): 440 nM
IC50 (HOS-TE85): 1030 nM
IC50 (SAOS-2): 370 nM
IC50 [3]: 2.4 nM
IC50 [1]: 0.9 nM
inhibition at 40 min, 100 µM (CYP2C9): 45.6%

CCN1CCN(c2ccc(Nc3ncc(C)c(Nc4ccc5cn[nH]c5c4)n3)cc2OC)CC1.Cl
Activity [4]: Non-Toxic
Cmax [5]: 78.3 ng/mL
Cmax [6]: 75.2 ng/mL
half-life [7]: 2.86 h
half-life [8]: 2.12 h
AUC(0-inf) [9]: 211 ng·h/mL
AUC(0-inf) [10]: 665 ng·h/mL
bioavailability [11]: 62.9%
Activity [12]: Non-Toxic
Activity [13]: Non-Toxic
Activity [14]: Non-Toxic
Activity [15]: Non-Toxic
Activity [16]: Non-Toxic
Activity [17]: Non-Toxic
Activity [18]: Non-Toxic
Activity [19]: Non-Toxic
Activity [20]: Non-Toxic
Activity [21]: Non-Toxic
Activity [22]: Non-Toxic
Activity [23]: Non-Toxic
Activity [24]: Non-Toxic
Activity [25]: Non-Toxic
Activity [26]: Non-Toxic
Activity [27]: Non-Toxic
Activity [28]: Non-Toxic
Activity [29]: Non-Toxic
Activity [30]: Non-Toxic

Cc1cnc(Nc2ccc(N3CCN(C)CC3)cc2)nc1Nc1ccc2nn(CCNC(=O)OC(C)(C)C)cc2c1
inhibition [2]: 71.1%

Cc1cnc(Nc2ccc(N3CCOCC3)cc2)nc1Nc1ccc2cn[nH]c2c1
IC50 [1]: 6.9 nM

Cc1cnc(Nc2ccc(N3CCN(C)CC3)cc2)nc1Nc1ccc2c(c1)CCCC2
inhibition [2]: 90.4%

CN1CCN(c2ccc(Nc3ncc(C(F)(F)F)c(Nc4ccc5cn[nH]c5c4)n3)cc2)CC1
inhibition [2]: 81%

Cc1ccc(NC(=O)c2ccc(CN3CCN(C)CC3)cc2)cc1Nc1nccc(-c2cccnc2)n1 [IMATINIB]
Activity [31]: Toxic

Cc1cnc(Nc2ccc(N3CCN(C)CC3)cc2)nc1Nc1ccc2c(c1)CCC2
inhibition [2]: 88.9%

CN1CCN(c2ccc(Nc3ncc(F)c(Nc4ccc5cn[nH]c5c4)n3)cc2)CC1
inhibition [2]: 94.4%

Cc1cnc(Nc2ccc(N3CCN(C)CC3)cc2)nc1Nc1cccc2[nH]ccc12
inhibition [2]: 90.3%

Cc1cnc(Nc2ccc(N3CCC(N4CCN(C)CC4)CC3)cc2)nc1Nc1ccc2cn[nH]c2c1
IC50 [1]: 16.7 nM
